Measured values: the supplement of paper PMC11208160

Test: recombinant UMI read abundance after kanamycin selection (control-corrected) (log10(CPM+1)); higher = more efficient recombination; extreme values may be limits of the assay; sequences stand for … in AGTGCAGAGAAAATCGGCCAGTTTTCTCTGCCTGCAGTCCGCATGCCGTGGGACCCCTTGGGTTCTAACCTGTTGCCTAGATTTATGCAGCGGACTGCCTTTCTCCCAAAGTGATAAACCGG…AGGTTGGTTTCACT; site = the 11-nt donor
Summary of the method: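 After plating on IPTG (0.07 mM) plus kanamycin, or unselected, in two replicates, recombinant UMIs were PCR-amplified across the donor–target junction and sequenced. The cells were Escherichia coli co-electroporated with a UMI-tagged donor and donor-binding-loop pair library and a target plasmid with a fixed target and T7-inducible IS621 bridge recombinase. Values are log10(CPM+1), with CPM averaged over replicates and scaled by control-derived factors.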
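Further: IS621 bridge recombinase in Escherichia coli cells against a fixed T5 target plasmid.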

Sequence | recombinant UMI read abundance (log10)
GCTTGCGCATGGACCGGTTTTCCCGGTAATCCGTATTTGAT (site GCTTGCCCTAT) | 0.00863
GCTTGCGCATGGACCGGTTTTCCCGGTAATCCGTATTTGAT (site GCTTGCGCTAT) | 1.72
GCTTGCGCATGGACCGGTTTTCCCGGTAATCCGTATTTGAT (site GCTTGCTCTAT) | 0
GGAACCCCATGGACCGGTTTTCCCGGTAATCCGTATTTGTC (site GGAACCCCTGA) | 0.334
GGAAGCACATGGACCGGTTTTCCCGGTAATCCGTATTTGTG (site GGAAGCACTCA) | 1.4
GGAATTCCATGGACCGGTTTTCCCGGTAATCCGTATTTGCA (site GGAATTCCTTG) | 0
GGACCACCATGGACCGGTTTTCCCGGTAATCCGTATTTGCG (site GGACCACCTCG) | 0.0308
GGACGCTCATGGACCGGTTTTCCCGGTAATCCGTATTTGAG (site GGACGCTCTCT) | 1.55
GGACGTCCATGGACCGGTTTTCCCGGTAATCCGTATTTGCC (site GGACGTCCTGG) | 1.75
GGACTAGCATGGACCGGTTTTCCCGGTAATCCGTATTTGCG (site GGACTAGCTCG) | 2.05
GGACTCACATGGACCGGTTTTCCCGGTAATCCGTATTTGCA (site GGACTCACTTG) | 2.37
GGAGCCCCATGGACCGGTTTTCCCGGTAATCCGTATTTGCG (site GGAGCCCCTCG) | 0.00647
GGAGCGACATGGACCGGTTTTCCCGGTAATCCGTATTTGGA (site GGAGCGACTTC) | 0.237
GGAGCGGCATGGACCGGTTTTCCCGGTAATCCGTATTTGGT (site GGAGAGGCTAC) | 0
GGAGCGGCATGGACCGGTTTTCCCGGTAATCCGTATTTGGT (site GGAGCGGCTAC) | 0.387
GGAGCGGCATGGACCGGTTTTCCCGGTAATCCGTATTTGGT (site GGAGGGGCTAC) | 0.00705
GGAGCGGCATGGACCGGTTTTCCCGGTAATCCGTATTTGGT (site GGAGTGGCTAC) | 0.101
GGAGGTTCATGGACCGGTTTTCCCGGTAATCCGTATTTGAA (site GGAGGTTCTTT) | 1.66
GGAGTGCCATGGACCGGTTTTCCCGGTAATCCGTATTTGGT (site GGAGTGACTAC) | 0.00343
GGAGTGCCATGGACCGGTTTTCCCGGTAATCCGTATTTGGT (site GGAGTGCCTAC) | 0.0291
GGAGTGCCATGGACCGGTTTTCCCGGTAATCCGTATTTGGT (site GGAGTGGCTAC) | 0.00926
GGAGTGCCATGGACCGGTTTTCCCGGTAATCCGTATTTGGT (site GGAGTGTCTAC) | 1.21
GGAGTGGCATGGACCGGTTTTCCCGGTAATCCGTATTTGGA (site GGAGTGGCTAC) | 0.0116
GGAGTGGCATGGACCGGTTTTCCCGGTAATCCGTATTTGGA (site GGAGTGGCTCC) | 0.019
GGAGTGGCATGGACCGGTTTTCCCGGTAATCCGTATTTGGA (site GGAGTGGCTGC) | 0

Sequence | recombinant UMI read abundance (log10)
GGAGTGGCATGGACCGGTTTTCCCGGTAATCCGTATTTGGA (site GGAGTGGCTTC) | 0.645
GGATATACATGGACCGGTTTTCCCGGTAATCCGTATTTGCC (site GGATAAACTGG) | 0
GGATATACATGGACCGGTTTTCCCGGTAATCCGTATTTGCC (site GGATACACTGG) | 0.982
GGATATACATGGACCGGTTTTCCCGGTAATCCGTATTTGCC (site GGATAGACTGG) | 0.756
GGATATACATGGACCGGTTTTCCCGGTAATCCGTATTTGCC (site GGATATACTGG) | 1.81
GGATCACCATGGACCGGTTTTCCCGGTAATCCGTATTTGCT (site CGATCATCTAG) | 0
GGATCACCATGGACCGGTTTTCCCGGTAATCCGTATTTGCT (site GGATCACCTAG) | 0.0128
GGATCAGCATGGACCGGTTTTCCCGGTAATCCGTATTTGAA (site GGATCAGCTTT) | 1.19
GGATCATCATGGACCGGTTTTCCCGGTAATCCGTATTTGCC (site CGATCATCTAG) | 0
GGATCATCATGGACCGGTTTTCCCGGTAATCCGTATTTGCC (site GGATCATCTGG) | 0.722
GGATCGTCATGGACCGGTTTTCCCGGTAATCCGTATTTGCC (site GGATCGTCTGG) | 2.05
GGATGCACATGGACCGGTTTTCCCGGTAATCCGTATTTGTA (site GAATGCACTTA) | 0.31
GGATGCACATGGACCGGTTTTCCCGGTAATCCGTATTTGTA (site GCATGCACTTA) | 0.0182
GGATGCACATGGACCGGTTTTCCCGGTAATCCGTATTTGTA (site GGATGCACTTA) | 1.62
GGATGCACATGGACCGGTTTTCCCGGTAATCCGTATTTGTA (site GTATGCACTTA) | 0.439
GGATGCTCATGGACCGGTTTTCCCGGTAATCCGTATTTGCT (site GGATGCTCTAG) | 3
GGATTTACATGGACCGGTTTTCCCGGTAATCCGTATTTGAG (site GGATTTACTCT) | 0.713
GGCAAATCATGGACCGGTTTTCCCGGTAATCCGTATTTGCT (site GGCAAATCTAG) | 0
GGCAACCCATGGACCGGTTTTCCCGGTAATCCGTATTTGTT (site GGCAACCCTAA) | 0.0163
GGCAACCCATGGACCGGTTTTCCCGGTAATCCGTATTTGTT (site GGCCACCCTAA) | 0.0118
GGCAACCCATGGACCGGTTTTCCCGGTAATCCGTATTTGTT (site GGCGACCCTAA) | 0.0135
GGCAACCCATGGACCGGTTTTCCCGGTAATCCGTATTTGTT (site GGCTACCCTAA) | 0.0252
GGCAATACATGGACCGGTTTTCCCGGTAATCCGTATTTGAA (site GGCAATACTTT) | 0.862
GGCAATACATGGACCGGTTTTCCCGGTAATCCGTATTTGAA (site GGCAATCCTTT) | 0.00332
GGCAATACATGGACCGGTTTTCCCGGTAATCCGTATTTGAA (site GGCAATGCTTT) | 0

Sequence | recombinant UMI read abundance (log10)
GGCAATACATGGACCGGTTTTCCCGGTAATCCGTATTTGAA (site GGCAATTCTTT) | 0
GGCAATCCATGGACCGGTTTTCCCGGTAATCCGTATTTGAA (site AGCAATCCTTT) | 0.00634
GGCAATCCATGGACCGGTTTTCCCGGTAATCCGTATTTGAA (site CGCAATCCTTT) | 0
GGCAATCCATGGACCGGTTTTCCCGGTAATCCGTATTTGAA (site GACAATCCTTT) | 0
GGCAATCCATGGACCGGTTTTCCCGGTAATCCGTATTTGAA (site GCCAATCCTTT) | 0
GGCAATCCATGGACCGGTTTTCCCGGTAATCCGTATTTGAA (site GGAAATCCTTT) | 0
GGCAATCCATGGACCGGTTTTCCCGGTAATCCGTATTTGAA (site GGCAAACCTTT) | 0
GGCAATCCATGGACCGGTTTTCCCGGTAATCCGTATTTGAA (site GGCAACCCTTT) | 0.00936
GGCAATCCATGGACCGGTTTTCCCGGTAATCCGTATTTGAA (site GGCAAGCCTTT) | 0.0191
GGCAATCCATGGACCGGTTTTCCCGGTAATCCGTATTTGAA (site GGCAATACTTT) | 0.0044
GGCAATCCATGGACCGGTTTTCCCGGTAATCCGTATTTGAA (site GGCAATCCTAT) | 0
GGCAATCCATGGACCGGTTTTCCCGGTAATCCGTATTTGAA (site GGCAATCCTCT) | 0.0139
GGCAATCCATGGACCGGTTTTCCCGGTAATCCGTATTTGAA (site GGCAATCCTGT) | 0
GGCAATCCATGGACCGGTTTTCCCGGTAATCCGTATTTGAA (site GGCAATCCTTA) | 0.00549
GGCAATCCATGGACCGGTTTTCCCGGTAATCCGTATTTGAA (site GGCAATCCTTC) | 0.00387
GGCAATCCATGGACCGGTTTTCCCGGTAATCCGTATTTGAA (site GGCAATCCTTG) | 0
GGCAATCCATGGACCGGTTTTCCCGGTAATCCGTATTTGAA (site GGCAATCCTTT) | 0.434
GGCAATCCATGGACCGGTTTTCCCGGTAATCCGTATTTGAA (site GGCAATGCTTT) | 0.00508
GGCAATCCATGGACCGGTTTTCCCGGTAATCCGTATTTGAA (site GGCAATTCTTT) | 0
GGCAATCCATGGACCGGTTTTCCCGGTAATCCGTATTTGAA (site GGCACTCCTTT) | 0
GGCAATCCATGGACCGGTTTTCCCGGTAATCCGTATTTGAA (site GGCAGTCCTTT) | 0
GGCAATCCATGGACCGGTTTTCCCGGTAATCCGTATTTGAA (site GGCATTCCTTT) | 0.0126
GGCAATCCATGGACCGGTTTTCCCGGTAATCCGTATTTGAA (site GGCCATCCTTT) | 0.0223
GGCAATCCATGGACCGGTTTTCCCGGTAATCCGTATTTGAA (site GGCGATCCTTT) | 0
GGCAATCCATGGACCGGTTTTCCCGGTAATCCGTATTTGAA (site GGCTATCCTTT) | 0.316
